Measurements taken from patent US7029652B2, “Method of treating tumors” (The Regents of the University of California, priority 1998, dated 2006).

Legend:
HBT 3477 tumors [1] = test: Microvessel density (CD31) in tumors; assay type: in vivo, mice
Procedure: (§1) Cellular immunopathology groups. Unless otherwise noted, groups consisted of 2 mice, each bearing 2 tumors, for a total of 4 tumors analyzed at each time point. […] The tumors were removed, cut in half, frozen in optimal cutting temperature (O.C.T). medium, and stored at about −70° C. until sectioning (10-μm sections). All time points were evaluated for apoptosis by terminal deoxynucleotidyl transferase-mediated dUTP nick end labeling (TUNEL, Cavrieli, et al. J. Cell Bio., 119: 493–501 (1992)) analysis, and selected time points (untreated, 1,5 and 6 days) were assessed for differences in proliferation rate (Ki67) and microvessel density (CD31).
(§2) Proliferation and microvessel density Analyses. 10-μm sections of tumors from untreated and mice treated with cRGD pentapeptide, RIT and CMRIT method and sacrificed at 1, 5 and 6 days after treatment were fixed for 10 minutes in ice-cold acetone, rinsed in PBS, and briefly incubated in methanol with 0.6% H2O2 (5 minutes). After rinsing in PBS, sections were blocked for 10 minutes with 10% goat serum and 1% bovine serum albumin in PBS. Mouse anti-Ki67 MAb (Pharmingen, clone B56) was applied in blocking solution (6.25 μg/ml) and the slides were incubated at room temperature for 2 hours, followed by rinsing in PBS. Goat anti-mouse rhodamine-labeled or goat anti-mouse Cy-3-labeled antibody was applied (Jackson ImmunoResearch Laboratories, Inc, West Grove, Pa., 1:100) and the slides were incubated for 1 hour at room temperature. After rinsing in PBS the sections were incubated for 1 hour at room temperature with rat anti-mouse CD31 antibody (Pharmingen, 1:100), followed by rinsing in PBS and a subsequent 1 hour incubation with goat anti-rat FITC-labeled antibody (Pharmingen, 1:50). After rinsing in PBS, the slides were counterstained with DAPI (0.4 μg/ml) and mounted in Biomeda gel mount (Fisher) under coverslips. Quantitation of Ki67 was performed using an Olympus microscope at X1000 magnification for assessment of proliferation. The mean total number of Ki67-positive cells/field in a tumor was determined by counts from 6 fields per tumor chosen randomly by DAPI stain. Microvessel density was determined by counting the number of CD31-stained vessels per random field at X400 magnification. Any endothelial cell or cell cluster positive for CD31, which was separate from an adjacent cluster, was counted as one microvessel. Six randomly chosen fields per tumor section were used to establish an average for each tumor. Average microvessel density for a treatment group was determined by averaging the values from 4 tumors/group.

HBT 3477 tumors [2] = test: Tumoricidal effect in HBT 3477 breast cancer xenografts; assay type: in vivo, mice
Procedure: Mice. Female athymic Balb/c nu/nu mice (7–10 week old; Harlan Sprague Dawley, Inc., Frederick, Md.) were maintained according to University of California animal care guidelines. HBT 3477 cells (3.0×10^6), harvested in log phase, were injected subcutaneously into one side of the abdomen for therapy studies (except where noted) and into both sides for immunopathology studies. Injection of RIT was by tail vein and cyclo-(Arg-Gly-Asp-D-Phe-[N-Me]-Val) was delivered by intraperitoneal (i.p.) injection. “Day 0” was designated as the time of RIT injection or, for first cRGD pentapeptide injection, for cRGD pentapeptide only group. Mice were sacrificed by cervical dislocation for immunopathology studies at the times indicated, when tumor burden exceeded allowed limits, or at 84 days for therapy studies.
Control (No RIT) Treatment groups.
High Dose RIT Treatment groups.
Low Dose RIT Treatment groups. […] These doses were given on day 0, 1 hour prior to RIT, followed by 5 more doses on days 2, 4, 6, 8, and 10 (30 mice, all with 1 tumor each).
Tumoricidal effect. Tumors were measured with calipers in 3 orthogonal diameters 3 times per week. Tumor volume was calculated using the formula for hemiellipsoids (DeNardo et al. Clin. Cancer Res., 3:71–79 (1997)). Initial tumor volume was defined as the volume on the day before treatment. Tumors that completely regressed were considered to have a volume of zero. […] For mice bearing two tumors with differing responses, tumor response was described according to both tumor responses. Mice dying prior to 30 days from toxicity were excluded from tumor response results.
(§3) Statistical Analysis. Statistical analysis of mortality data for RIT and CMRIT method treated mice was performed using a Fisher Exact test with StatExact software to determine if mortality was different. Statistical analysis of therapy data was done using a Cochran Mantel Haenszel test to evaluate effect of RIT dose on outcome for RIT and CMRIT method groups. Comparison of cure rates to all other responses for RIT vs. CMRIT method groups was done by Fisher Exact test, with the best tumor response used for 2-tumored animals for statistical purposes. Statistical differences between immunopathology groups at the different time points were assessed by analysis of variance (ANOVA) (Fisher PLSD) using STATview software as appropriate, with p<0.05 considered significant.

[3] = Toxicity: mortality, weights and blood counts; assay type: in vivo
Procedure: Toxicity. Weights and blood counts were measured 2–3 times per week for 12 weeks post-injection or until death. Blood samples were collected from tail veins using 2 μL microcapillary pipets. Samples from mice within a dose group were pooled, and diluted 1:200 in phosphate-buffered saline (PBS, 0.9% saline/10 mM sodium phosphate, pH 7.6) for red blood cell (RBC) counts; 1:100 in 1% (w/v) ammonium oxalate for platelet counts; or 1:20 in 3% (w/v) acetic acid for white blood cell (WBC) counts.
as §3

HBT 3477 cells = test: HBT 3477 cell binding radioimmunoreactive assay (RIA); design: species or system human
Description: ^90Y-DOTA-peptide-ChL6. ChL6 was conjugated to 1,4,7,10-tetraazacyclododecane-N,N′,N″,N′″-tetraacetic acid (DOTA) and radiolabeled with ^90Y as described by DeNardo, et al. J. Nucl. Med., 36:829–836, with greater than or equal to 80 percent efficiency to prepare ^90Y-DOTA-peptide-ChL6. ^90Y-DOTA-peptide-ChL6 was examined for structural and functional integrity by molecular sieving high performance liquid chromatography (HPLC), cellulose acetate electrophoresis (CAE), and HBT 3477 cell binding radioimmunoreactive assay (RIA). […] Immunoreactive binding to live cells indicated greater than 92% reactivity; administration as a single dose of 200, 230 or 260 […] ^90Y-DOTA-peptide-ChL6.

HBT 3477 tumors [4] = test: Proliferation (Ki67) in tumors; assay type: in vivo, mice
Procedure: as §1, §2

HBT 3477 tumors [5] = test: TUNEL analysis of total cell apoptosis in tumors; assay type: in vivo, mice; settings: 6 days
Procedure: as §1
TUNEL analysis of total and endothelial apoptosis. Tumors were cut into 10-μm sections onto Fisher superplus slides (Fisher, Pittsburgh, Pa.), air-dried for 1 hour and frozen at about −70° C. until TUNEL analysis with ApopTag Red kit (rhodamine used as label, Intergen, Purchase, N.Y.) following the manufacturer's instructions subsequent to fixation for about 10 minutes in 1% paraformadehyde. After TUNEL, the slides were rinsed, and incubated overnight at 4° C. with a rat anti-mouse MAb against CD31 at 1:100 dilution (Pharmingen, San Diego, Calif.) to identify endothelial cells. Slides were rinsed and incubated for 1 hour with an anti-rat antibody linked to FITC (1:50 dilution) (Pharmingen). Slides were rinsed, dipped briefly in 4,6-diamidino-2-phenylindole (DAPI, 0.2 μg/ml) for background nuclear stain, rinsed again and mounted, followed by storage in the dark at about 4° C. until quantitation.
Quantitation of total apoptosis and endothelial apoptosis. An Olympus microscope equipped with a Chroma Pinkle Filter Set (Chroma, Brattleboro, Vt.) with excitation filters for UV, FITC and rhodamine and dual/triple bandpass filters to allow simultaneous viewing of multiple wavelengths, was used to quantify 6 randomly chosen X600 fields (150,000 μm^2/field) in non-necrotic regions of each section. Fields were chosen to cover the entire viewing area using DAPI label, which typically included about 300–350 cells. Total apoptosis was determined by the average number of positive nuclei per field for each tumor while endothelial apoptosis was determined using the same fields with a dual bandpass filter to count cells labeled by both FITC (CD31) and rhodamine (TUNEL). Fields were chosen from apparently non-necrotic areas of tumor sections, as HBT 3477 xenografts typically grow quickly in nude mice, doubling their volumes in 6 days, resulting in central necrosis of untreated tumors. As TUNEL may label necrotic cells, though less intensely, this strategy was chosen over a completely random process.

HBT 3477 tumors [6] = settings: 250 μg provided 1 hour before RIT; cited from earlier work
[7] = combined RIT 200–260 μCi, best response (parentheses)
[8] = combined RIT 200–260 μCi, worst response
[9] = high dose RIT 260 μCi, best response (parentheses)
[10] = high dose RIT 260 μCi, worst response
[11] = low dose RIT, best response (parentheses)

## ^90Y-1,4,7,10-tetraazacyclododecane-N,N′,N″,N′″-tetraacetic acid-peptide-ChL6 [RIT]
HBT 3477 tumors [1]; Day 1, six fields per tumor at 400X
  Microvessel density, average number ± SE of CD31 positive regions: 15 ± 1
HBT 3477 tumors [1]; Day 5
  Microvessel density, average number ± SE of CD31 positive regions: 13 ± 1
HBT 3477 tumors [1]; Day 6
  Microvessel density, average number ± SE of CD31 positive regions: 9 ± 1 e
HBT 3477 tumors [2]; [7]
  CR complete regression (number of mice): 10
  Cure (number of mice): 9
  NR no regression (number of mice): 0
  PR partial regression (number of mice): 27
HBT 3477 tumors [2]; [8]
  CR complete regression (number of mice): 6
  NR no regression (number of mice): 3
  PR partial regression (number of mice): 29
HBT 3477 tumors [2]; combined low and high dose RIT
  cure rate: 20%
HBT 3477 tumors [2]; combined low and high dose RIT 200–260 μCi, worst response
  Cure (number of mice): 8
HBT 3477 tumors [2]; high dose RIT 260 μCi (CMRIT + cRGD 250 μg × 6), worst response
  Cure (number of mice): 4
HBT 3477 tumors [2]; [9]
  CR complete regression (number of mice): 6
  PR partial regression (number of mice): 16
HBT 3477 tumors [2]; [10]
  CR complete regression (number of mice): 2
  NR no regression (number of mice): 0
  PR partial regression (number of mice): 20
HBT 3477 tumors [2]; high dose RIT (260 μCi)
  cures: 15%
HBT 3477 tumors [2]; low dose RIT 200–230 μCi (CMRIT 200 μCi + cRGD 250 μg × 6), worst response
  Cure (number of mice): 4
HBT 3477 tumors [2]; low dose RIT 200–230 μCi, best response (parentheses)
  Cure (number of mice): 5
HBT 3477 tumors [2]; low dose RIT (200–230 μCi)
  cures: 25%
HBT 3477 tumors [2]; [11]
  NR no regression (number of mice): 0
  PR partial regression (number of mice): 11
HBT 3477 tumors [2]; low dose RIT, worst response
  CR complete regression (number of mice): 4
  NR no regression (number of mice): 3
  PR partial regression (number of mice): 9
[3]; comparison as stated in the sentence
  weight, RBC, WBC and platelet counts, in words: decreased weight, RBC, WBC and platelet counts
[3]; high dose RIT (260 μCi)
  mortality: 33%
[3]; low dose RIT (200–230 μCi)
  mortality: 29%
HBT 3477 cells
  Immunoreactive binding to live cells, reactivity: greater than 92%
HBT 3477 tumors [4]; Day 1, six fields per tumor at 1000X
  Proliferating cells, average no. of Ki67-positive cells: 18 ± 1
HBT 3477 tumors [4]; Day 5
  Proliferating cells, average no. of Ki67-positive cells: 13 ± 1 f
HBT 3477 tumors [4]; Day 6
  Proliferating cells, average no. of Ki67-positive cells: 7 ± 1
HBT 3477 tumors [5]
  TUNEL-positive tumor and endothelial cells (total cells): 21.4±2.9 cells/field
  total cell apoptosis, percent of cells: 6.1%

## cyclo-(Arg-Gly-Asp-D-Phe-1-aminocyclohexane carboxylic acid) [EMD 270179]
HBT 3477 tumors [6]
  increased uptake of RIT by HBT 3477 tumors: up to 50%
